Data as given in patent publication US10406111B2, “Gold/lanthanide nanoparticle conjugates and uses thereof” (COLORADO SCHOOL OF MINES, priority 2009, dated 2019).

Assay: In vitro MRI relaxation properties (relaxivity)
Source text: In vitro MRI of GdNPs and Polymer Modified Gd NPs. In order to provide information about the clinical imaging viability of the polymer modified gold/Gd nanoparticles, as a positive contrast agent, in vitro MRI was employed to determine relaxation properties of the unmodified and polymer modified gold/Gd nanoparticles. Table 1 compares the MRI longitudinal and transverse relaxivities, r1 and r2, respectively, of PNIPAM-modified gold/Gd nanoparticles and gold/Gd unmodified nanoparticles to the clinically employed contrasts agents, gadopentetate dimeglumine (Magnevist®) and gadobenate dimeglumine (Multihance®). […] By taking advantage of these properties, novel theragnostic polymer-modified gold/Gd nanoparticles could be produced and exploited as contrast agents for conventional T1 MR imaging.

| Compound | r1 (MRI longitudinal relaxivity) |
| --- | --- |
| CNC[C@H](O)[C@@H](O)[C@H](O)[C@H](O)CO.CNC[C@H](O)[C@@H](O)[C@H](O)[C@H](O)CO.O=C([O-])CN(CCN(CC(=O)[O-])CC(=O)O)CCN(CC(=O)[O-])CC(=O)O.[Gd+3] [Magnevist ®, gadopentetate dimeglumine] | 6.95 mM⁻¹ s⁻¹ |
| CNC[C@H](O)[C@@H](O)[C@H](O)[C@H](O)CO.CNC[C@H](O)[C@@H](O)[C@H](O)[C@H](O)CO.O=C([O-])CN(CCN(CC(=O)[O-])CC(=O)O)CCN(CC(=O)O)C(COCc1ccccc1)C(=O)[O-].[Gd+3] (centres unmarked) [Multihance ®, gadobenate dimeglumine] | 17.7 mM⁻¹ s⁻¹ |
